Data reported in article PMC11435058, “Synthesis of New Thiazole-Privileged Chalcones as Tubulin Polymerization Inhibitors with Potential Anticancer Activities” (Pharmaceuticals, 2024).
Like-named read-outs stand apart in the source and are kept apart here.

Experiments:
[1] = tested on: MDA-MB-468; test: NCI-60 anticancer screen (SRB; single dose and five doses); assay type: cell-based, human
In short: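 Readout was sulforhodamine B staining, read spectrophotometrically as percent growth against untreated controls. This followed a 48 h exposure to one 10μM dose across roughly 60 human tumor lines of the NCI screen.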

[2] = tested on: 60 human tumor cell lines panel; test: NCI-60 anticancer screen, whole panel (means and ranges over the cell lines); assay type: cell-based; conditions: Homo sapiens, 48 h, dose of 10 μM
[3] = tested on: SNB-19; test: cells; conditions: Homo sapiens
[4] = tested on: MOLT-4; test: NCI-60 anticancer screen (SRB; single dose and five doses); conditions: Homo sapiens
[5] = tested on: RPMI-8226; test: as above; conditions: Homo sapiens
[6] = tested on: A549/ATCC; test: as above; conditions: Homo sapiens
[7] = tested on: HOP-62; test: as above; conditions: Homo sapiens
[8] = tested on: HOP-92; test: as above; conditions: Homo sapiens
[9] = tested on: NCI-H226; test: as above; conditions: Homo sapiens
[10] = tested on: NCI-H322M; test: as above; conditions: Homo sapiens
[11] = tested on: NCI-H460; test: as above; conditions: Homo sapiens
[12] = tested on: NCI-H522; test: as above; conditions: Homo sapiens
[13] = tested on: COLO 205; test: as above; conditions: Homo sapiens
[14] = tested on: HCC-2998; test: as above
[15] = tested on: HCT-116; test: as above; conditions: Homo sapiens
[16] = tested on: MALME-3M; test: as above; conditions: Homo sapiens
[17] = tested on: SK-MEL-28; test: as above; conditions: Homo sapiens
[18] = tested on: OVCAR-8; test: as above; conditions: Homo sapiens
[19] = tested on: NCI/ADR-RES; test: as above; conditions: Homo sapiens
[20] = tested on: SK-OV-3; test: as above; conditions: Homo sapiens
[21] = tested on: A498; test: as above; conditions: Homo sapiens
[22] = tested on: ACHN; test: as above; conditions: Homo sapiens
[23] = tested on: RXF 393; test: as above; conditions: Homo sapiens
[24] = tested on: PC-3; test: as above; conditions: Homo sapiens
[25] = tested on: BT-549; test: as above; conditions: Homo sapiens
[26] = 48 h, read-out: Growth Percentage

Compound: COc1cc(/C=C/C(=O)c2sc(=S)[nH]c2C)cc(OC)c1OC [2p, (E)-1-(4-Methyl-2-Thioxo-2,3-Dihydrothiazol-5-yl)-3-(3,4,5-Trimethoxyphenyl)Prop-2-En-1-One]
- activity at 10 µM ([1]; Homo sapiens, 48 h, MDA-MB-468, dose of 10 μM, read-out: Growth Percentage): 3.79%
- IC50 ([1]; Homo sapiens, MDA-MB-468, MDA-MB-468, Breast Cancer, five dose): 5.75 µM
- GI50 ([1]; Homo sapiens, MDA-MB-468, Breast Cancer, five dose): 1.55 µM
- CC50 ([1]; Homo sapiens, MDA-MB-468, Breast Cancer, five dose, read-out: LC50 (the source's name)): 17.8 µM
- TGI ([1]; MDA-MB-468, Breast Cancer, five dose): 4.47 µM
- activity at 10 µM ([2]; mean over the tested cell lines, read-out: Mean growth percentage): 14.9%
- activity at 10 µM ([2]; range over the cell lines, read-out: growth percentages against most of the tested cells (lowest to highest)): -64.6 to 96.5%
- GI50 ([3]; SNB-19): 5.01 µM
- IC50 ([3]; SNB-19): 13.2 µM
- activity at 10 µM ([3]; SNB-19, 48 h, read-out: Growth Percentage): 19.6%
- CC50 ([3]; SNB-19, read-out: LC50): 43.6 µM
- IC (TGI) ([3]; SNB-19, read-out: TGI): 17.8 µM
- GI50 ([4]; MOLT-4): 2.88 µM
- IC50 ([4]; MOLT-4): 4.17 µM
- activity at 10 µM ([4]; MOLT-4, 48 h, read-out: Growth Percentage): 9.11%
- CC50 ([4]; MOLT-4, read-out: LC50): > 100 µM
- IC (TGI) ([4]; MOLT-4, read-out: TGI): 22.9 µM
- GI50 ([5]; RPMI-8226): 2.19 µM
- IC50 ([5]; RPMI-8226): 4.47 µM
- activity at 10 µM ([5]; RPMI-8226, 48 h, read-out: Growth Percentage): 5.31%
- CC50 ([5]; RPMI-8226, read-out: LC50): > 100 µM
- IC (TGI) ([5]; RPMI-8226, read-out: TGI): 9.12 µM
- GI50 ([6]; A549): 3.55 µM
- IC50 ([6]; A549): 5.01 µM
- activity at 10 µM ([6]; A549, 48 h, read-out: Growth Percentage): 26.6%
- CC50 ([6]; A549, read-out: LC50): 44.7 µM
- IC (TGI) ([6]; A549, read-out: TGI): 13.8 µM
- GI50 ([7]; HOP-62): 3.16 µM
- IC50 ([7]; HOP-62): 5.37 µM
- activity at 10 µM ([7]; HOP-62, 48 h, read-out: Growth Percentage): 4.61%
- CC50 ([7]; HOP-62, read-out: LC50): > 100 µM
- IC (TGI) ([7]; HOP-62, read-out: TGI): 16.2 µM
- GI50 ([8]; HOP-92): 2.95 µM
- IC50 ([8]; HOP-92): 44.7 µM
- activity at 10 µM ([8]; HOP-92, 48 h, read-out: Growth Percentage): 16.4%
- CC50 ([8]; HOP-92, read-out: LC50): > 100 µM
- IC (TGI) ([8]; HOP-92, read-out: TGI): 19.9 µM
- GI50 ([9]; NCI-H226): 3.63 µM
- IC50 ([9]; NCI-H226): 32.4 µM
- activity at 10 µM ([9]; NCI-H226, 48 h, read-out: Growth Percentage): 16.4%
- CC50 ([9]; NCI-H226, read-out: LC50): > 100 µM
- IC (TGI) ([9]; NCI-H226, read-out: TGI): 36.3 µM
- GI50 [10]: 4.57 µM
- IC50 [10]: 14.1 µM
- CC50 ([10]; read-out: LC50): 51.3 µM
- IC (TGI) ([10]; read-out: TGI): 18.6 µM
- GI50 ([11]; NCI-H460): 2.14 µM
- IC50 ([11]; NCI-H460): 3.31 µM
- activity at 10 µM ([11]; NCI-H460, 48 h, read-out: Growth Percentage): -1.34%
- CC50 ([11]; NCI-H460, read-out: LC50): 44.7 µM
- IC (TGI) ([11]; NCI-H460, read-out: TGI): 5.62 µM
- GI50 ([12]; NCI-H522): 3.16 µM
- IC50 ([12]; NCI-H522): 7.59 µM
- activity at 10 µM ([12]; NCI-H522, 48 h, read-out: Growth Percentage): 16.3%
- CC50 ([12]; NCI-H522, read-out: LC50): 40.7 µM
- IC (TGI) ([12]; NCI-H522, read-out: TGI): 12.3 µM
- GI50 ([13]; COLO 205): 16.2 µM
- IC50 ([13]; COLO 205): 28.8 µM
- activity at 10 µM ([13]; COLO 205, 48 h, read-out: Growth Percentage): 81.7%
- CC50 ([13]; COLO 205, read-out: LC50): 70.8 µM
- IC (TGI) ([13]; COLO 205, read-out: TGI): 33.9 µM
- GI50 ([14]; Homo sapiens, HCC 2998): 5.13 µM
- IC50 ([14]; Homo sapiens, HCC 2998): 11.8 µM
- activity at 10 µM ([14]; Homo sapiens, HCC 2998, 48 h, read-out: Growth Percentage): 19%
- CC50 ([14]; Homo sapiens, HCC 2998, read-out: LC50): 44.7 µM
- TGI ([14]; five-dose, Colon Cancer HCC-2998): 17.38 µM
- GI50 ([15]; HCT-116): 3.16 µM
- IC50 ([15]; HCT-116): 3.63 µM
- activity at 10 µM ([15]; HCT-116, 48 h, read-out: Growth Percentage): 6.81%
- CC50 ([15]; HCT-116, read-out: LC50): 69.2 µM
- IC (TGI) ([15]; HCT-116, read-out: TGI): 14.4 µM
- GI50 [16]: 5.75 µM
- IC50 [16]: 17.8 µM
- CC50 ([16]; read-out: LC50): 55 µM
- IC (TGI) ([16]; read-out: TGI): 20.4 µM
- GI50 ([17]; SK-MEL-28): 4.07 µM
- IC50 ([17]; SK-MEL-28): 9.12 µM
- activity at 10 µM ([17]; SK-MEL-28, 48 h, read-out: Growth Percentage): 24.2%
- CC50 ([17]; SK-MEL-28, read-out: LC50): 57.5 µM
- IC (TGI) ([17]; SK-MEL-28, read-out: TGI): 17.4 µM
- GI50 ([18]; OVCAR-8): 2.14 µM
- IC50 ([18]; OVCAR-8): 3.55 µM
- activity at 10 µM ([18]; OVCAR-8, 48 h, read-out: Growth Percentage): 4.32%
- CC50 ([18]; OVCAR-8, read-out: LC50): 45.7 µM
- IC (TGI) ([18]; OVCAR-8, read-out: TGI): 5.5 µM
- GI50 [19]: 2.4 µM
- IC50 [19]: 4.37 µM
- activity at 10 µM [19, 26]: 0.58%
- CC50 ([19]; read-out: LC50): > 100 µM
- IC (TGI) ([19]; read-out: TGI): 7.41 µM
- GI50 ([20]; SK-OV-3): 7.41 µM
- IC50 ([20]; SK-OV-3): 46.8 µM
- activity at 10 µM ([20]; SK-OV-3, 48 h, read-out: Growth Percentage): 31.2%
- CC50 ([20]; SK-OV-3, read-out: LC50): > 100 µM
- IC (TGI) ([20]; SK-OV-3, read-out: TGI): > 100 µM
- GI50 ([21]; A498): 11.5 µM
- IC50 ([21]; A498): 43.6 µM
- activity at 10 µM ([21]; A498, 48 h, read-out: Growth Percentage, A498, dose of 10 μM): 96.5%
- CC50 ([21]; A498, read-out: LC50): > 100 µM
- IC (TGI) ([21]; A498, read-out: TGI): 34.7 µM
- GI50 [22]: 3.89 µM
- IC50 [22]: 6.46 µM
- activity at 10 µM [22, 26]: 19.6%
- CC50 ([22]; read-out: LC50): 55 µM
- IC (TGI) ([22]; read-out: TGI): 16.6 µM
- GI50 ([23]; RXF 393): 2.51 µM
- IC50 ([23]; RXF 393): 11.2 µM
- activity at 10 µM ([23]; RXF 393, 48 h, read-out: Growth Percentage): 30.3%
- CC50 ([23]; RXF 393, read-out: LC50): 30.9 µM
- IC (TGI) ([23]; RXF 393, read-out: TGI): 7.08 µM
- GI50 ([24]; PC-3): 5.01 µM
- IC50 ([24]; PC-3): 8.91 µM
- activity at 10 µM ([24]; PC-3, 48 h, read-out: Growth Percentage): 35.7%
- CC50 ([24]; PC-3, read-out: LC50): > 100 µM
- IC (TGI) ([24]; PC-3, read-out: TGI): 41.7 µM
- GI50 ([25]; BT-549): 2.95 µM
- IC50 ([25]; BT-549): 11.8 µM
- activity at 10 µM ([25]; BT-549, 48 h, read-out: Growth Percentage): -11.8%
- IC (TGI) ([25]; BT-549, read-out: TGI): 10.7 µM
